Test results taken from ChEMBL document CHEMBL1201862, “PubChem BioAssay data set” (2004).
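Compound exposure: 48 hours, 5 concentrations, 96-well plates. GI50: concentration for 50% inhibition of growth.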 The source made the active and inactive calls. Cut-off read from the data, not from the text of the source: active = GI50 up to about 1.1 µM and inactive = higher.

How the values were obtained:
Assay in all cases: NCI tumour cell line growth inhibition, 48 h
A498 = system: A498
BT-549 = system: BT-549
EKVX = system: EKVX
HOP-62 = system: HOP-62
HOP-92 = system: HOP-92
Hs-578T = system: Hs-578T
IGROV-1 = system: IGROV-1
MCF7 = system: MCF7
MOLT-4 = system: MOLT-4
NCI/ADR-RES = system: NCI/ADR-RES
RPMI-8226 = system: RPMI-8226
RXF 393 = system: RXF 393
SF-268 = system: SF-268
SK-MEL-28 = system: SK-MEL-28
SW-620 = system: SW-620
T47D = system: T47D
TK-10 = system: TK-10
U-251 = system: U-251
UACC-257 = system: UACC-257
UACC-62 = system: UACC-62

Measured: GI50

CC(C)CC1c2[nH]c3ccccc3c2C[C@H]2C(=O)NC(CCCCNC(=O)OC(C)(C)C)C(=O)N12 (stereo not given in full)
active: T47D 0.449 µM
inactive: A498 35.4 µM | BT-549 25.2 µM | EKVX 51.9 µM | HOP-62 56.2 µM | HOP-92 31 µM | Hs-578T 2.7 µM | IGROV-1 37.1 µM | MCF7 34.3 µM | MOLT-4 11.8 µM | NCI/ADR-RES 33.4 µM | RPMI-8226 18.7 µM | RXF 393 6.62 µM | SF-268 21.4 µM | SK-MEL-28 65.6 µM | SW-620 41 µM | TK-10 31.3 µM | U-251 24.7 µM | UACC-257 44.8 µM | UACC-62 27 µM

CC1(C)CC(Nc2ccc(Nc3ccccc3)cc2)CC(C)(C)N1
inactive: A498 28.2 µM | BT-549 12.7 µM | EKVX 34.2 µM | HOP-62 50.2 µM | HOP-92 12 µM | Hs-578T 25.4 µM | IGROV-1 44.1 µM | MCF7 16.7 µM | MOLT-4 18.1 µM | NCI/ADR-RES 21.9 µM | RPMI-8226 12.7 µM | RXF 393 18 µM | SF-268 43.3 µM | SK-MEL-28 18.2 µM | SW-620 21.8 µM | T47D 16 µM | TK-10 32.8 µM | U-251 26.1 µM | UACC-257 14.7 µM | UACC-62 16.1 µM

COc1ccc2nc3cc([N+](=O)[O-])ccc3c(NNc3ccc([N+](=O)[O-])cc3)c2c1
inactive: BT-549 43.1 µM | EKVX 44.1 µM | HOP-62 57.3 µM | HOP-92 26.7 µM | Hs-578T 55.3 µM | IGROV-1 7.96 µM | MCF7 4.01 µM | MOLT-4 25.5 µM | NCI/ADR-RES 61.8 µM | RPMI-8226 18.7 µM | RXF 393 44.1 µM | SF-268 54.7 µM | SK-MEL-28 68.2 µM | SW-620 9.02 µM | T47D 37.6 µM | TK-10 2.46 µM | U-251 20.8 µM | UACC-257 1.83 µM | UACC-62 3.37 µM
active: A498 0.0951 µM

Clc1ccc(Cc2nc3cc4ccccc4cc3[nH]2)cc1Cl
inactive: A498 13.6 µM | BT-549 16 µM | EKVX 29.2 µM | HOP-62 26.1 µM | HOP-92 11.7 µM | Hs-578T 21.3 µM | IGROV-1 3.01 µM | MCF7 16.2 µM | MOLT-4 2.37 µM | NCI/ADR-RES 28.7 µM | RPMI-8226 31.3 µM | RXF 393 16.4 µM | SF-268 15.9 µM | SK-MEL-28 12.6 µM | SW-620 17.4 µM | T47D 12.2 µM | TK-10 19.4 µM | U-251 15.5 µM | UACC-257 18.1 µM | UACC-62 14.2 µM

NS(=O)(=O)c1ccc(NC(=O)N/N=C/c2ccccc2O)cc1
inactive: A498 > 100 µM | BT-549 43.8 µM | EKVX > 100 µM | HOP-62 50.7 µM | HOP-92 94.4 µM | Hs-578T 60.5 µM | IGROV-1 58.7 µM | MCF7 58.2 µM | MOLT-4 37.7 µM | NCI/ADR-RES 68.4 µM | RPMI-8226 > 100 µM | RXF 393 > 100 µM | SF-268 49 µM | SK-MEL-28 85.1 µM | SW-620 74.3 µM | T47D 88.7 µM | TK-10 > 100 µM | U-251 50.1 µM | UACC-257 58.6 µM | UACC-62 60.4 µM

O=C(CSc1ncccn1)N/N=C/c1ccccc1OCc1ccccc1
inactive: A498 22.1 µM | BT-549 25 µM | EKVX 27.9 µM | HOP-62 28.2 µM | HOP-92 16.9 µM | Hs-578T 37.8 µM | IGROV-1 28.4 µM | MCF7 17.6 µM | MOLT-4 20.2 µM | NCI/ADR-RES 25.9 µM | RPMI-8226 19.5 µM | RXF 393 21.9 µM | SF-268 43 µM | SK-MEL-28 36.6 µM | SW-620 29.6 µM | T47D 24.8 µM | TK-10 23.4 µM | U-251 26.8 µM | UACC-257 21 µM | UACC-62 20.9 µM

COc1ccc(C2=C(N)c3c(OC)cccc3C2=O)cc1
inactive: A498 > 100 µM | BT-549 48.6 µM | EKVX > 100 µM | HOP-62 22.5 µM | HOP-92 > 10 µM | Hs-578T 61.4 µM | IGROV-1 60.3 µM | MCF7 60.5 µM | MOLT-4 > 100 µM | NCI/ADR-RES > 100 µM | RPMI-8226 > 100 µM | RXF 393 9.66 µM | SF-268 37.8 µM | SK-MEL-28 > 100 µM | SW-620 > 100 µM | T47D > 100 µM | TK-10 > 10 µM | U-251 64.9 µM | UACC-257 > 10 µM | UACC-62 > 100 µM

O=C1C(c2cnc3ccccc3n2)=C(O)c2ccccc21
inactive: A498 > 100 µM | BT-549 > 100 µM | EKVX 19.1 µM | HOP-62 43.4 µM | HOP-92 > 100 µM | Hs-578T > 57.7 µM | IGROV-1 > 83 µM | MCF7 10.3 µM | MOLT-4 > 70.5 µM | NCI/ADR-RES > 100 µM | RPMI-8226 > 61.1 µM | RXF 393 9.71 µM | SF-268 > 93.8 µM | SK-MEL-28 > 82.4 µM | SW-620 > 56.2 µM | T47D 83.6 µM | TK-10 18.3 µM | U-251 58.6 µM | UACC-257 > 71 µM | UACC-62 > 100 µM

O=C(Nc1nncs1)NS(=O)(=O)n1c(=S)sc2ccccc21
inactive: A498 > 100 µM | BT-549 > 100 µM | EKVX 72.6 µM | HOP-62 > 100 µM | HOP-92 > 100 µM | Hs-578T > 100 µM | IGROV-1 > 100 µM | MCF7 > 100 µM | MOLT-4 42.4 µM | NCI/ADR-RES > 100 µM | RPMI-8226 > 100 µM | RXF 393 > 100 µM | SF-268 > 100 µM | SK-MEL-28 > 100 µM | SW-620 > 100 µM | T47D 88.9 µM | TK-10 > 100 µM | U-251 > 100 µM | UACC-257 > 100 µM | UACC-62 > 100 µM

CCNC(=S)Nc1c(C#N)c2n(c1C(=O)OCC)CCCCC2
inactive: A498 > 100 µM | BT-549 30.9 µM | EKVX > 100 µM | HOP-62 35.2 µM | HOP-92 42.3 µM | Hs-578T 35.3 µM | IGROV-1 > 100 µM | MCF7 > 100 µM | MOLT-4 > 100 µM | NCI/ADR-RES > 100 µM | RPMI-8226 71.3 µM | RXF 393 33.1 µM | SF-268 62.7 µM | SK-MEL-28 > 100 µM | SW-620 > 100 µM | T47D > 100 µM | TK-10 > 100 µM | U-251 > 100 µM | UACC-257 > 100 µM | UACC-62 > 100 µM

CC(=O)/C(=C\I)c1ccccc1
inactive: A498 17.7 µM | BT-549 1.83 µM | EKVX 18.6 µM | HOP-62 23.1 µM | HOP-92 2.45 µM | Hs-578T 3.44 µM | IGROV-1 2.1 µM | MCF7 1.8 µM | MOLT-4 1.89 µM | NCI/ADR-RES 10 µM | RPMI-8226 2.03 µM | RXF 393 1.66 µM | SF-268 7.91 µM | SK-MEL-28 3.18 µM | SW-620 1.3 µM | T47D 1.69 µM | TK-10 13.9 µM | U-251 2.26 µM | UACC-257 3.04 µM | UACC-62 1.77 µM

COc1ccc(-c2c(N)n(-c3cc(OC)cc(OC)c3)c(=O)c3cc([N+](=O)[O-])ccc23)cc1
inactive: A498 28 µM | BT-549 19.2 µM | EKVX 38.3 µM | HOP-62 > 100 µM | HOP-92 3.21 µM | Hs-578T 6.01 µM | IGROV-1 > 52.6 µM | MCF7 29.3 µM | MOLT-4 > 60.7 µM | NCI/ADR-RES > 66.1 µM | RPMI-8226 2.76 µM | RXF 393 11.1 µM | SF-268 29.4 µM | SK-MEL-28 > 100 µM | SW-620 > 87.7 µM | T47D 7.4 µM | TK-10 > 26 µM | U-251 > 100 µM | UACC-257 > 90.4 µM | UACC-62 99.3 µM

Clc1ccc(Nc2nnc(CNc3ccc(-c4nnc(Nc5ccc(Cl)cc5)o4)cc3)o2)cc1
inactive: A498 14.9 µM | BT-549 17.7 µM | EKVX 22.3 µM | HOP-62 18.9 µM | HOP-92 23.9 µM | Hs-578T 17.8 µM | IGROV-1 14.1 µM | MCF7 10.9 µM | MOLT-4 6.35 µM | NCI/ADR-RES 29.7 µM | RPMI-8226 9.42 µM | RXF 393 18.5 µM | SF-268 21.2 µM | SK-MEL-28 17.2 µM | SW-620 20.9 µM | T47D 24.6 µM | TK-10 14 µM | U-251 8.71 µM | UACC-257 20.3 µM | UACC-62 13.6 µM

COc1ccc(C2CCc3nc4nc(N)nc(N)c4cc3C2)cc1 (stereo not given)
inactive: A498 22.2 µM | BT-549 25.5 µM | EKVX 41.2 µM | HOP-62 12.1 µM | HOP-92 1.2 µM | Hs-578T 15.6 µM | IGROV-1 9.68 µM | MCF7 15.2 µM | MOLT-4 22.1 µM | NCI/ADR-RES 39.2 µM | RPMI-8226 32.6 µM | RXF 393 16.3 µM | SF-268 15.8 µM | SK-MEL-28 20.8 µM | SW-620 36.6 µM | T47D 21 µM | TK-10 8.34 µM | U-251 9.64 µM | UACC-257 > 100 µM | UACC-62 31.5 µM
